Source: patent US11802127B2, “3,4-dihydro-2,7-naphthyridine-1,6(2H,7H)-diones as MEK inhibitors” (Pfizer Inc., priority 2021, dated 2023)

Columns and labels:
[1] = tested on: ERK1/2(Thr202/Tyr204) phosphorylation (MEK-dependent) in A375 cells; experiment: Cellular Phospho-p44/42 MAPK (Erk1/2) (Thr202/Tyr204) Assay; assay type: cell-based; conditions: Homo sapiens, A-375, 1-hour incubation, pERK1/2 (Thr202/Tyr204) In-Cell Western normalized to GAPDH
Method in brief: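 A375 cells exposed 1 h to 10-point 1:3 dilutions (top 20–1 μM, 0.5% DMSO), then fixed and stained for pERK1/2 (Thr202/Tyr204) by In-Cell Western. Signal normalized to GAPDH per well; DMSO and 1 μM reference inhibitor define 0 and 100% inhibition.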

[2] = molecular target: T1, P-gp (MDR1) (Homo sapiens, UniProt P08183); experiment: Efflux ratio in MDR1 transfected LLC-PK1 cells; assay type: in vitro ADME; conditions: pig, Papp(B−A)/Papp(A−B)
T1 construct: expressed in transfected cells; host or cells: LLC-PK1 (porcine kidney) cells transfected with MDR1
T1 sequence (P08183 whole entry): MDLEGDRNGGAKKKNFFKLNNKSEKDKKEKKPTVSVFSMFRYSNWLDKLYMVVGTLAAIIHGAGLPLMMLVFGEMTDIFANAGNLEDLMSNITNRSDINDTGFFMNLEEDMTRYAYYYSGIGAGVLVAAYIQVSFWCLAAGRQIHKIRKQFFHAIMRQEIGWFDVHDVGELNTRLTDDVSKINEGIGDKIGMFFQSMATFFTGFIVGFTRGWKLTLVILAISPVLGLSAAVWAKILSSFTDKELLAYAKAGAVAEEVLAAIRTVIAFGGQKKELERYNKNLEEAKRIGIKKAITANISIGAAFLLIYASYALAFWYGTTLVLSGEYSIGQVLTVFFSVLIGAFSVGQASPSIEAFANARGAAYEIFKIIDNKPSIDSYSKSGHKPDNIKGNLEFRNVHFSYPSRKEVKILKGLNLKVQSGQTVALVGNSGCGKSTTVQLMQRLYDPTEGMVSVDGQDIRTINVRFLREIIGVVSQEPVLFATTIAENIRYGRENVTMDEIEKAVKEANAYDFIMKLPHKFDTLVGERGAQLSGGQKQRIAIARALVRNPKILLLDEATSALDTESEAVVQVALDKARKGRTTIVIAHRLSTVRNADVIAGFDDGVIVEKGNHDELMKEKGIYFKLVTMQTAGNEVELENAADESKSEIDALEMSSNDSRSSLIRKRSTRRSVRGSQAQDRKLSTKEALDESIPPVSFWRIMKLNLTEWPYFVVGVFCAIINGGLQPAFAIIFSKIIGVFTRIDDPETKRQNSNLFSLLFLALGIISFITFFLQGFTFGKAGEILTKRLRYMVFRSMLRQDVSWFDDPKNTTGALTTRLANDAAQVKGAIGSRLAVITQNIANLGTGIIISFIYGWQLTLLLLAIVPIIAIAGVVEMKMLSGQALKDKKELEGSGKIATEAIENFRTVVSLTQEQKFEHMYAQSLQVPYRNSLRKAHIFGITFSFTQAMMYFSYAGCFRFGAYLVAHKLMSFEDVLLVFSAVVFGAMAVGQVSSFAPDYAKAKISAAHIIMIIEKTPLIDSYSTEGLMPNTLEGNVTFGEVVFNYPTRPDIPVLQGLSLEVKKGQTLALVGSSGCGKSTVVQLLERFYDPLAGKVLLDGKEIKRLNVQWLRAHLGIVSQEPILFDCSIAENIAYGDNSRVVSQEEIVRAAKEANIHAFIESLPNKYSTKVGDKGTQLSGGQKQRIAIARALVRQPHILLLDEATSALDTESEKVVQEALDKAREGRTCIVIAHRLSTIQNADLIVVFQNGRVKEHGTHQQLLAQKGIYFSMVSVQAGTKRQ
Method in brief: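 LLC-PK1 cells transfected with MDR1, test article at 1 μM (1% organic), transport measured A→B and B→A over 2 h at 37° C. Monolayer integrity checked with lucifer yellow, compound quantified by LC-MS/MS. Efflux ratio = Papp(B−A)/Papp(A−B).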

[3] = MDR1 LLC-PK1 and BCRP MDCKII Permeability Assay: permeability coefficient (Papp); assay type: in vitro ADME; conditions: MDCK, test article 1 μM, 37° C.
Method in brief: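 Bidirectional (A to B, B to A) transport of test article (1 μM, 1% organic) across MDR1-transfected LLC-PK1 or BCRP-transfected MDCKII (canine P-gp knockout) monolayers, 2 h at 37° C., 5% CO2, in triplicate. Lucifer yellow monitored monolayer integrity. Concentrations measured by LC-MS/MS against labetalol internal standard.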

efflux ratio at 2 h, 1 μM [2] | Papp at 2 h, 1 μM [3] | SMILES | IC50 [1]
3.4 | 32.1 ×10⁻⁶ cm/s | CSc1ccc(Nc2c3c(cc(=O)n2C)CCN(OCCO)C3=O)c(F)c1 [Example 6, 8-((2-fluoro-4-(methylthio)phenyl)amino)-2-(2-hydroxyethoxy)-7-methyl-3,4-dihydro-2,7-naphthyridine-1,6(2H,7H)-dione] | 0.008 µM
5.4 | 34.5 ×10⁻⁶ cm/s | Cn1c(Nc2ccc(Br)cc2F)c2c(cc1=O)CCN(OCCO)C2=O [Example 7, 8-((4-bromo-2-fluorophenyl)amino)-2-(2-hydroxyethoxy)-7-methyl-3,4-dihydro-2,7-naphthyridine-1,6(2H,7H)-dione] | 0.023 µM
7.1 | 34.2 ×10⁻⁶ cm/s | Cn1c(Nc2ccc(I)cc2F)c2c(cc1=O)CCN(OCCO)C2=O [Example 8, 8-((2-fluoro-4-iodophenol)amino)-2-(2-hydroxyethoxy)-7-methyl-3,4-dihydro-2,7-naphthyridine-1,6(2H,7H)-dione] | 0.001 µM
2.7 | 31.1 ×10⁻⁶ cm/s | CCc1ccc(Nc2c3c(cc(=O)n2C)CCN(OCCO)C3=O)c(F)c1 [Example 14, 8-((4-ethyl-2-fluorophenyl)amino)-2-(2-hydroxyethoxy)-7-methyl-3,4-dihydro-2,7-naphthyridine-1,6(2H,7H)-dione] | 0.015 µM
6.2 | 24.6 ×10⁻⁶ cm/s | Cn1c(Nc2ccc(OC(F)F)cc2F)c2c(cc1=O)CCN(OCCO)C2=O [Example 22, 8-((4-(difluoromethoxy)-2-fluorophenyl)amino)-2-(2-hydroxyethoxy)-7-methyl-3,4-dihydro-2,7-naphthyridine-1,6(2H,7H)-dione] | 0.021 µM
2.9 | 31.1 ×10⁻⁶ cm/s | Cc1c2c(c(Nc3ccc(Br)cc3F)n(C)c1=O)C(=O)N(OCCO)CC2 [Example 36, 8-((4-bromo-2-fluorophenyl)amino)-2-(2-hydroxyethoxy)-5,7-dimethyl-3,4-dihydro-2,7-naphthyridine-1,6(2H,7H)-dione] | 0.03 µM
